In the supplement of paper PMC10307832:

Key:
Test in all cases: relative viability (nuclei count vs DMSO), 5 days (fraction); higher = more cells survive
A-427 = test system: A-427
Procedure, shortened: (§1)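 Relative viability equals treated-well nuclei counts divided by vehicle-well nuclei counts. Counts came from 4× images of lung cancer cell lines grown in 1536-well plates for 5 days after pin-tool dosing on the day after seeding. Dosing used one drug alone or a fixed anchor-drug dose plus five library-drug doses (not always all listed) in √10 steps, and values are medians of duplicate plates.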

COR-L 105 = test system: COR-L 105
Procedure, shortened: as §1

EPLC-272H = test system: EPLC-272H
Procedure, shortened: as §1

HCC-366 = test system: HCC-366
Procedure, shortened: as §1

HCC-78 = test system: HCC-78
Procedure, shortened: as §1

HOP-62 = test system: HOP-62
Procedure, shortened: as §1

LC-2-ad = test system: LC-2-ad
Procedure, shortened: as §1

LCLC-97TM1 = test system: LCLC-97TM1
Procedure, shortened: as §1

LU99A = test system: LU99A
Procedure, shortened: as §1

LXF-289 = test system: LXF-289
Procedure, shortened: as §1

NCI-H1755 = test system: NCI-H1755
Procedure, shortened: as §1

NCI-H1792 = test system: NCI-H1792
Procedure, shortened: as §1

`O=C(O)c1ccc(-c2c[nH]c3ncc(-c4ccccc4)cc23)cc1C1CCCC1` + N=C(N)NC(=N)NCCc1ccccc1 [Phenformin] (partner 250 µM) was tested, and the relative viability (A-427; first compound 0.04 µM) was 0.317, the relative viability (A-427; first compound 0.1265 µM) was 0.446 and the relative viability (A-427; first compound 0.4 µM) was 0.304. The relative viability (A-427; first compound 1.265 µM) was 0.264, the relative viability (COR-L 105; first compound 0.04 µM) was 0.485 and the relative viability (COR-L 105; first compound 0.1265 µM) was 0.492. For the same compound, the relative viability (COR-L 105; first compound 0.4 µM) was 0.489, the relative viability (COR-L 105; first compound 1.265 µM) was 0.446 and the relative viability (EPLC-272H; first compound 0.04 µM) was 0.357. It also gave a relative viability (EPLC-272H; first compound 0.1265 µM) of 0.295, a relative viability (EPLC-272H; first compound 0.4 µM) of 0.356 and a relative viability (EPLC-272H; first compound 1.265 µM) of 0.328. For the same compound, the relative viability (HCC-366; first compound 0.04 µM) was 0.686, the relative viability (HCC-366; first compound 0.1265 µM) was 0.631 and the relative viability (HCC-366; first compound 0.4 µM) was 0.607. The relative viability (HCC-366; first compound 1.265 µM) was 0.611, the relative viability (HCC-78; first compound 0.1265 µM) was 0.907 and the relative viability (HCC-78; first compound 0.4 µM) was 0.828. The relative viability (HCC-78; first compound 1.265 µM) was 0.683, the relative viability (HOP-62; first compound 0.04 µM) was 0.699 and the relative viability (HOP-62; first compound 0.1265 µM) was 0.669. For the same compound, the relative viability (HOP-62; first compound 0.4 µM) was 0.611, the relative viability (HOP-62; first compound 1.265 µM) was 0.595 and the relative viability (LC-2-ad; first compound 0.04 µM) was 0.584. It also gave a relative viability (LC-2-ad; first compound 0.1265 µM) of 0.634, a relative viability (LC-2-ad; first compound 0.4 µM) of 0.536 and a relative viability (LC-2-ad; first compound 1.265 µM) of 0.494. It also gave a relative viability (LCLC-97TM1; first compound 0.04 µM) of 0.475, a relative viability (LCLC-97TM1; first compound 0.1265 µM) of 0.435 and a relative viability (LCLC-97TM1; first compound 0.4 µM) of 0.5. It also gave a relative viability (LCLC-97TM1; first compound 1.265 µM) of 0.399, a relative viability (LU99A; first compound 0.04 µM) of 0.961 and a relative viability (LU99A; first compound 0.1265 µM) of 0.784. For the same compound, the relative viability (LU99A; first compound 0.4 µM) was 0.865, the relative viability (LU99A; first compound 1.265 µM) was 0.606 and the relative viability (LXF-289; first compound 0.04 µM) was 0.543. For the same compound, the relative viability (LXF-289; first compound 0.1265 µM) was 0.507, the relative viability (LXF-289; first compound 0.4 µM) was 0.485 and the relative viability (LXF-289; first compound 1.265 µM) was 0.243. For the same compound, the relative viability (NCI-H1755; first compound 0.04 µM) was 0.597, the relative viability (NCI-H1755; first compound 0.1265 µM) was 0.615 and the relative viability (NCI-H1755; first compound 0.4 µM) was 0.64. It also gave a relative viability (NCI-H1755; first compound 1.265 µM) of 0.604, a relative viability (NCI-H1792; first compound 0.1265 µM) of 0.475 and a relative viability (NCI-H1792; first compound 0.4 µM) of 0.353.
